Source: article PMC4854767 (Clinical cancer research : an official journal of the …, 2016)
Read-outs that look alike come from different tables or passages of the source.

Columns and labels:
in vivo = conditions: NOD-scid/IL2Rγ−/− (NSG; NOD.Cg-Prkdcscid Il2rgtm1Wjl/SzJ), mouse, plasma, po, 800 mg/kg
MCF-7 cells [1] = assay: Sulforhodamine B; assay type: cell-based, human
MCF-7 cells [2] = assay: Caspase-3/7-activatable luciferase reporter in MCF-7 cells; assay type: cell-based, human; conditions: 1 µM fulv for 2 d before 1 µM GDC-0941 for 12, 24 or 36 h, combination
[3] = GDC-0941 plasma pharmacokinetics in mice
[4] = GDC-0941 intratumor pharmacokinetics in mice bearing MCF-7 xenografts; assay type: in vivo; conditions: for time of peak intratumor concentration: fulv pretreatment
MCF-7 tumors [5] = conditions: for peak apoptosis, tumor cells (TUNEL): in combination with fulv
ZR75-1 cells = assay: Caspase-3/7-activatable luciferase reporter in ZR75-1 cells; assay type: cell-based, human; conditions: 1 µM fulv for 2 d before 1 µM GDC-0941 for 12 or 24 h, combination
MCF-7 tumors [6] = assay: MCF-7 xenograft tumor volume study; assay type: in vivo, mice
[7] = system: HCI-003 patient-derived breast cancer xenografts; assay: HCI-003 patient-derived xenograft tumor volume study; assay type: in vivo, mice; conditions: fulv alone; HCI-003 xenografts
[8] = system: chronic eosinophilic leukemia; conditions: weekly dosing; cited from earlier work
[9] = low-dose (100 mg/kg), single dose

With CS(=O)(=O)N1CCN(Cc2cc3nc(-c4cccc5[nH]ncc45)nc(N4CCOCC4)c3s2)CC1 [GDC-0941] the Tmax (in vivo) was 15 to 30 min, the “duration of exposure required to appreciably decrease viability” value (MCF-7 cells [1]; MCF-7 cells, GDC-0941 ≤0.25 µM) was at least 24 h and the growth inhibition (MCF-7 cells [1]; MCF-7 cells, continuous exposure to 1–2 µM GDC-0941) was “near-complete growth inhibition”. The caspase-3/7 reporter activity (MCF-7 cells [2]) was “increased caspase-3/7 reporter activity compared to either agent alone”, the “time until plasma concentration below the limit of detection” value ([3]; 100 mg/kg) was at most 24 h and the “plasma concentration in plateau phase” value ([3]; 100 mg/kg, plateau after 1 h, maintained for 8 h) was 6.8 to 10.7 µM. For the same compound, the “time until plasma concentration below detectable limits” value ([3]; 800 mg/kg) was at most 72 h, the “plasma concentration in plateau phase” value ([3]; 800 mg/kg, plateau maintained through 24 h) was 7.9 to 15 µM and the “time until intratumor concentration below the detectable limit” value ([4]; high-dose (800 mg/kg)) was at most 72 h. For the same compound, the “time of peak intratumor concentration” value ([4]; high-dose (800 mg/kg)) was 9 h, the “time at which drug was undetectable in tumor” value ([4]; low-dose (100 mg/kg) with a second dose at 12 h) was 36 h and the “time at which drug was undetectable in tumor” value [4, 9] was 18 h. For the same compound, the “time of peak intratumor concentration” value [4, 9] was 9 h, the “time of peak intratumor concentration” value ([4]; two low-dose treatments (100 mg/kg at 0 and 12 h)) was 21 h and the “maintained apoptosis (TUNEL)” value (MCF-7 tumors [5]; fulv plus bi-daily low-dose GDC-0941 (3 d on, 4 d off), until 72 h) was ~ 10%. For the same compound, the “apoptosis (TUNEL)” value (MCF-7 tumors [5]; fulv plus daily low-dose GDC-0941, maintained for 72 h) was 8–10%, the “peak apoptosis, tumor cells (TUNEL)” value (MCF-7 tumors [5]; one low dose (100 mg/kg) GDC-0941, at 24 h) was 6.7% and the “peak apoptosis, tumor cells (TUNEL)” value (MCF-7 tumors [5]; single high-dose (800 mg/kg) GDC-0941, at 48 h) was 30.1%. The “peak apoptosis, tumor cells (TUNEL)” value (MCF-7 tumors [5]; two low doses (100 mg/kg at 0 and 12 h) GDC-0941, at 24 h) was 15.9%, the caspase-3/7 reporter activity (ZR75-1 cells) was “increased caspase-3/7 reporter activity compared to either agent alone” and the tumor response (MCF-7 tumors [6]; combination of fulv and GDC-0941, regardless of dose/schedule, MCF-7 tumors) was “near-complete tumor regression in most cases”. The body weight (MCF-7 tumors [6]; single-agent GDC-0941, different doses/schedules) was “without notable loss of body weight” and the tumor growth (MCF-7 tumors [6]; single-agent GDC-0941, different doses/schedules, MCF-7 tumors 500–1,000 mm^3) was “only slowed tumor growth”.

For C[C@]12CC[C@@H]3c4ccc(O)cc4C[C@@H](CCCCCCCCC[S+]([O-])CCCC(F)(F)C(F)(F)F)[C@H]3[C@@H]1CC[C@@H]2O (stereo partly drawn) [fulv], the “growth of MCF-7 cells” value (MCF-7 cells [1]; single-agent fulv (1 µM)) was “effectively inhibited growth”, the tumor growth [7] was “did not affect tumor growth” and the tumor response (MCF-7 tumors [6]; fulv alone, larger MCF-7 tumors (500–1,000 mm^3)) was “generally unresponsive”.

For Cc1ccc(NC(=O)c2ccc(CN3CCN(C)CC3)cc2)cc1Nc1nccc(-c2cccnc2)n1 [imatinib], the “patients in whom recurrence was prevented” value [8] is listed as 7/7.
